The target of the experiment is T1, Human KLK1 (Homo sapiens, UniProt P06870).
T1 construct: purchased Callbiochem (Calbiochem)
T1 sequence (P06870 25-262): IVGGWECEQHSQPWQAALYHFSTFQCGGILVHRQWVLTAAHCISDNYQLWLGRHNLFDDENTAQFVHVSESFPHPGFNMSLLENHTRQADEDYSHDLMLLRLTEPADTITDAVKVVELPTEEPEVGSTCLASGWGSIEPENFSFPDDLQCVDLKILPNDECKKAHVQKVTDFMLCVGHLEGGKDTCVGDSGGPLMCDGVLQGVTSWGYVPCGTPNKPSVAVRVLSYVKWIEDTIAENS
In words: Determination of the IC50 for KLK1 (fluorogenic substrate H-DVal-Leu-Arg-AFC). The experiment is classed as biochemical. The settings on record: 37° C. Here is the method:
Determination of the IC50 for KLK1
KLK1 inhibitory activity in vitro was determined using standard published methods (see e.g. Johansen et al., Int. J. Tiss. Reac. 1986, 8, 185; Shori et al., Biochem. Pharmacol., 1992, 43, 1209; Stürzebecher et al., Biol. Chem. Hoppe-Seyler, 1992, 373, 1025). Human KLK1 (Callbiochem) was incubated at 37° C. with the fluorogenic substrate H-DVal-Leu-Arg-AFC and various concentrations of the test compound. Residual enzyme activity (initial rate of reaction) was determined by measuring the change in optical absorbance at 410 nm and the IC50 value for the test compound was determined.
`CC(C)CN(C)[C@@H](C)C(=O)N[C@@H](Cc1ccc(F)c(F)c1)C(=O)NCc1ccc(N)nc1` [Example 177, (S)—N-[(S)-1-[(6-Amino-pyridin-3-ylmethyl)-carbamoyl]-2-(3,4-difluoro-phenyl)-ethyl]-2-(isobutyl-methyl-amino)-propionamide] showed an IC50 of 1.9 nM.

With `CC(C)N1CCC[C@@H]1C(=O)N[C@@H](Cc1ccccc1F)C(=O)NCc1ccc(N)nc1` [Example 125, (R)-1-Isopropyl-pyrrolidine-2-carboxylic acid [(S)-1-[(6-amino-pyridin-3-ylmethyl)-carbamoyl]-2-(2-fluoro-phenyl)-ethyl]-amide], the 50% inhibitory concentration (IC50) was determined as 8.8 nM. As for `C[C@@H](C(=O)N[C@@H](Cc1ccc(C(F)(F)F)cc1)C(=O)NCc1ccc(N)nc1)N1CCCCC1` [Example 422, (S)—N-[(S)-1-[(6-Amino-pyridin-3-ylmethyl)-carbamoyl]-2-(4-trifluoromethyl-phenyl)-ethyl]-2-piperidin-1-yl-propionamide], the figure is 3 nM; as for `CN(CC(=O)N[C@@H](Cc1ccc(F)c(F)c1)C(=O)NCc1ccc(N)nc1)Cc1cccc(Cl)c1` [Example 164, (S)—N-(6-Amino-pyridin-3-ylmethyl)-2-{2-[(3-chloro-benzyl)-methyl-amino]-acetylamino}-3-(3,4-difluoro-phenyl)-propionamide], 345 nM; as for `NCC(=O)N[C@@H](C(=O)NCc1ccc(N)nc1)C(C1CCCCC1)C1CCCCC1` [Example 220, (R)-2-(2-Amino-acetylamino)-N-(6-amino-pyridin-3-ylmethyl)-3,3-dicyclohexyl-propionamide], 55.5 nM.

In the case of `Cc1cccc(C[C@H](NC(=O)c2[nH]c(C)cc2C)C(=O)NCc2ccc(N)nc2C)c1` [Example 281, 3,5-Dimethyl-1H-pyrrole-2-carboxylic acid {(S)-1-[(6-amino-2-methyl-pyridin-3-ylmethyl)-carbamoyl]-2-m-tolyl-ethyl}-amide], the IC50 is 1.8 nM.

`CN(CC(=O)N[C@@H](Cc1ccc(Cl)c(Cl)c1)C(=O)NCc1ccc(N)nc1)Cc1ccccc1` [Example 152, (S)—N-(6-Amino-pyridin-3-ylmethyl)-2-[2-(benzyl-methyl-amino)-acetylamino]-3-(3,4-dichloro-phenyl)-propionamide]: it took 5.7 nM to reach half-maximal inhibition (IC50).

`CN[C@@H](C)C(=O)N[C@@H](C(=O)NCc1ccc(N)nc1)C(C1CCCCC1)C1CCCCC1` [Example 218, (S)—N-{(R)-1-[(6-Amino-pyridin-3-ylmethyl)-carbamoyl]-2,2-dicyclohexyl-ethyl}-2-methylamino-propionamide] came in with an IC50 of 35.3 nM. With `CNCC(=O)N[C@@H](CC1CCCC2CCCCC21)C(=O)NCc1ccc(N)nc1` (stereo partly drawn) [Example 19, (S)—N-(6-Amino-pyridin-3-ylmethyl)-3-(decahydro-naphthalen-1-yl)-2-(2-methylamino-acetylamino)-propionamide] the figure was 21.6 nM; with `Nc1ccc(CNC(=O)[C@H](Cc2cccc(Cl)c2)NC(=O)CN2CCCCC2)cn1` [Example 412, (S)—N-(6-Amino-pyridin-3-ylmethyl)-3-(3-chloro-phenyl)-2-(2-piperidin-1-yl-acetylamino)-propionamide], 9.3 nM. As for `CCC(C)[C@@H](N)C(=O)N[C@@H](Cc1cccc2ccccc12)C(=O)NCc1cnc(N)c(C)c1` (stereo partly drawn) [Example 209, (R)-2-Amino-3-methyl-pentanoic acid {(S)-1-[(6-amino-5-methyl-pyridin-3-ylmethyl)-carbamoyl]-2-naphthalen-1-yl-ethyl}-amide], the figure is 36 nM. As for `Cc1nc(N)ccc1CNC(=O)[C@H](Cc1ccc(Cl)c(Cl)c1)NC(=O)[C@H]1CCc2ccccc2N1` [Example 202, (R)-1,2,3,4-Tetrahydro-quinoline-2-carboxylic acid [(S)-1-[(6-amino-2-methyl-pyridin-3-ylmethyl)-carbamoyl]-2-(3,4-dichloro-phenyl)-ethyl]-amide], the figure is 22.5 nM; as for `Cc1cc(C)c(C(=O)N[C@@H](Cc2ccc(-c3ccccc3)cc2)C(=O)NCc2ccc(N)nc2)[nH]1` [Example 252, 3,5-Dimethyl-1H-pyrrole-2-carboxylic acid {(S)-1-[(6-amino-pyridin-3-ylmethyl)-carbamoyl]-2-biphenyl-4-yl-ethyl}-amide], 43.2 nM; as for `Cn1c(C(=O)N[C@@H](Cc2cccc3ccccc23)C(=O)NCc2ccc(N)nc2)cc2ccccc21` [Example 306, 1-Methyl-1H-indole-2-carboxylic acid {(S)-1-[(6-amino-pyridin-3-ylmethyl)-carbamoyl]-2-naphthalen-1-yl-ethyl}-amide], 163 nM.

As for `Cc1cc(C)c(C(=O)N[C@@H](Cc2ccc(Cl)c(Cl)c2)C(=O)NCc2ccc(N)nc2C)[nH]1` [Example 280, 3,5-Dimethyl-1H-pyrrole-2-carboxylic acid [(S)-1-[(6-amino-2-methyl-pyridin-3-ylmethyl)-carbamoyl]-2-(3,4-dichloro-phenyl)-ethyl]-amide], the midpoint of inhibition, the IC50, lay at 1.9 nM. As for `CC(C)[C@@H](C(=O)N[C@@H](Cc1ccc(F)c(F)c1)C(=O)NCc1ccc(N)nc1)N(C)C(C)C` [Example 348, (S)—N-[(S)-1-[(6-Amino-pyridin-3-ylmethyl)-carbamoyl]-2-(3,4-difluoro-phenyl)-ethyl]-2-(isopropyl-methyl-amino)-3-methyl-butyramide], the figure is 11.1 nM; as for `Nc1ccc(CNC(=O)[C@H](Cc2ccc(Cl)c(Cl)c2)NC(=O)[C@H]2C=CCN2)cn1` [Example 65, (R)-2,5-Dihydro-1H-pyrrole-2-carboxylic acid [(S)-1-[(6-amino-pyridin-3-ylmethyl)-carbamoyl]-2-(3,4-dichloro-phenyl)-ethyl]-amide], 2.7 nM. Turning to `CC(C)N(C)[C@H](C)C(=O)N[C@@H](Cc1ccc(Cl)c(Cl)c1)C(=O)NCc1ccc(N)nc1` [Example 151, (R)—N-[(S)-1-[(6-Amino-pyridin-3-ylmethyl)-carbamoyl]-2-(3,4-dichloro-phenyl)-ethyl]-2-(isopropyl-methyl-amino)-propionamide], the IC50 came out at 17.7 nM.

With `CN1CCC[C@@H]1C(=O)N[C@@H](Cc1ccc(Cl)cc1)C(=O)NCc1ccc(N)nc1` [Example 93, (R)-1-Methyl-pyrrolidine-2-carboxylic acid [(S)-1-[(6-amino-pyridin-3-ylmethyl)-carbamoyl]-2-(4-chloro-phenyl)-ethyl]-amide], the midpoint of inhibition, the IC50, lay at 0.85 nM. With `CN1CCC[C@@H]1C(=O)N[C@@H](Cc1c[nH]c2ccccc12)C(=O)NCc1ccc(N)nc1` [Example 113, (R)-1-Methyl-pyrrolidine-2-carboxylic acid [(S)-1-[(6-amino-pyridin-3-ylmethyl)-carbamoyl]-2-(1H-indol-3-yl)-ethyl]-amide] the figure was 14.5 nM. As for `CC(C)N(C)[C@@H](C)C(=O)N[C@@H](Cc1cccc(C(F)(F)F)c1)C(=O)NCc1ccc(N)nc1` [Example 417, (S)—N-[(S)-1-[(6-Amino-pyridin-3-ylmethyl)-carbamoyl]-2-(3-trifluoromethyl-phenyl)-ethyl]-2-(isopropyl-methyl-amino)-propionamide], the figure is 0.83 nM; as for `CC(C)[C@@H](N)C(=O)N[C@@H](Cc1cccc2ccccc12)C(=O)NCc1ccc(N)nc1` [Example 22, (R)-2-Amino-N-{(S)-1-[(6-amino-pyridin-3-ylmethyl)-carbamoyl]-2-naphthalen-1-yl-ethyl}-3-methyl-butyramide], 2.2 nM. As for `COc1cccc(C[C@H](NC(=O)[C@H]2CCCN2C)C(=O)NCc2ccc(N)nc2)c1` [Example 107, (R)-1-Methyl-pyrrolidine-2-carboxylic acid [(S)-1-[(6-amino-pyridin-3-ylmethyl)-carbamoyl]-2-(3-methoxy-phenyl)-ethyl]-amide], the figure is 71.2 nM.

Turning to `Nc1ccc(CNC(=O)[C@H](Cc2ccc(F)cc2)NC(=O)c2nc3ccccc3[nH]2)cn1` [Example 333, 1H-Benzoimidazole-2-carboxylic acid [(S)-1-[(6-amino-pyridin-3-ylmethyl)-carbamoyl]-2-(4-fluoro-phenyl)-ethyl]-amide], inhibition was half-maximal at 184 nM (IC50).

Compound `Cc1ccc(-c2ccc(C(=O)N[C@@H](Cc3csc4ccccc34)C(=O)NCc3ccc(N)nc3)[nH]2)cc1` [Example 293, 5-p-Tolyl-1H-pyrrole-2-carboxylic acid {(S)-1-[(6-amino-pyridin-3-ylmethyl)-carbamoyl]-2-benzo[b]thiophen-3-yl-ethyl}-amide] had an IC50 of 36.3 nM.

In turn, `Cc1nc(N)ccc1CNC(=O)[C@H](Cc1cccc(C(F)(F)F)c1)NC(=O)c1cc2ccccc2[nH]1` [Example 309, 1H-Indole-2-carboxylic acid [(S)-1-[(6-amino-2-methyl-pyridin-3-ylmethyl)-carbamoyl]-2-(3-trifluoromethyl-phenyl)-ethyl]-amide] gave an IC50 of 42.3 nM.

`CNCC(=O)N[C@@H](Cc1ccc(Cl)c(Cl)c1)C(=O)NCc1ccc(N)nc1` [Example 69, (S)—N-(6-Amino-pyridin-3-ylmethyl)-3-(3,4-dichloro-phenyl)-2-(2-methylamino-acetylamino)-propionamide]: half-maximal inhibition (IC50) required 42.2 nM. As for `CCC(C)[C@@H](N)C(=O)N[C@@H](Cc1c[nH]c2ccccc12)C(=O)NCc1ccc(N)nc1` (stereo partly drawn) [Example 40, (R)-2-Amino-3-methyl-pentanoic acid [(S)-1-[(6-amino-pyridin-3-ylmethyl)-carbamoyl]-2-(1H-indol-3-yl)-ethyl]-amide], the figure is 6.6 nM; as for `Cc1cccc(C[C@H](NC(=O)[C@H]2CCCN2C)C(=O)NCc2ccc(N)nc2)c1` [Example 105, (R)-1-Methyl-pyrrolidine-2-carboxylic acid {(S)-1-[(6-amino-pyridin-3-ylmethyl)-carbamoyl]-2-m-tolyl-ethyl}-amide], 3.8 nM.

The values are drawn from patent US20100076015A1, “Aminopyridine Derivatives” (VANTIA LIMITED, priority 2008, published 2010).
